For one molecule, EC50 results are on record in ChEMBL document CHEMBL3098003, “Structure-based design of 2-aminopyridine oxazolidinones as potent and selective tankyrase inhibitors” (ACS Med Chem Lett, 2013).

The assay has as its target T1, Tankyrase 1/2 (Homo sapiens, UniProt Q9H2K2+O95271).
T1 sequence (Q9H2K2 whole entry): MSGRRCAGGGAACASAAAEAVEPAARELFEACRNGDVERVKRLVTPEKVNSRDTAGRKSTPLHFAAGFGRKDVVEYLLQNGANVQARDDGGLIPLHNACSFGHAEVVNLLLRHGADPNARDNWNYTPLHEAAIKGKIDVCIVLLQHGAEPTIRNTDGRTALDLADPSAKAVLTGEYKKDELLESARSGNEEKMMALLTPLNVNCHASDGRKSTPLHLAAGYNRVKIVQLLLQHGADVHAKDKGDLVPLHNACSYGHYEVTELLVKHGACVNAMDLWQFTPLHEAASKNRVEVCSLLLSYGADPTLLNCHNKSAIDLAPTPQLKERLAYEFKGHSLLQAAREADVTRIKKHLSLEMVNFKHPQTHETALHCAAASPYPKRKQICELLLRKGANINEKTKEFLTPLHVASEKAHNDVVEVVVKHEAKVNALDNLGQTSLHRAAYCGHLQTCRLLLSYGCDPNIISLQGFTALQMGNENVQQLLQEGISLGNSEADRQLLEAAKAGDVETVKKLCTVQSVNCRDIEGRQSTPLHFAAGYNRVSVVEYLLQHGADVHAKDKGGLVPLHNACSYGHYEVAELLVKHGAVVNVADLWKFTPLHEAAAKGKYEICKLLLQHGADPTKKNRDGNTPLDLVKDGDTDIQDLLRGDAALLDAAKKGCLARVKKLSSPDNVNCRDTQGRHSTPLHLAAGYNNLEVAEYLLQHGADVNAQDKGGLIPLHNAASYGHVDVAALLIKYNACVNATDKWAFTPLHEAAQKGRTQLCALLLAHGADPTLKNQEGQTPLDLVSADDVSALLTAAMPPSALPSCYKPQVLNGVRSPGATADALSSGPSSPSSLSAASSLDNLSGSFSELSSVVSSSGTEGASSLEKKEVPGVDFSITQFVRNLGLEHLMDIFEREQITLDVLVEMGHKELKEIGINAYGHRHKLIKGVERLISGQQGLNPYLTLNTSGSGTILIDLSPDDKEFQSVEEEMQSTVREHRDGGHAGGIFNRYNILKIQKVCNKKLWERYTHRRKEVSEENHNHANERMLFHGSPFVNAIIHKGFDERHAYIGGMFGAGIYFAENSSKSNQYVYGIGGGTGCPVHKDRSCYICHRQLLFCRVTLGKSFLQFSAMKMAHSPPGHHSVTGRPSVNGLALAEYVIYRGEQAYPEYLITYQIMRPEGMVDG
T1 sequence (O95271 whole entry): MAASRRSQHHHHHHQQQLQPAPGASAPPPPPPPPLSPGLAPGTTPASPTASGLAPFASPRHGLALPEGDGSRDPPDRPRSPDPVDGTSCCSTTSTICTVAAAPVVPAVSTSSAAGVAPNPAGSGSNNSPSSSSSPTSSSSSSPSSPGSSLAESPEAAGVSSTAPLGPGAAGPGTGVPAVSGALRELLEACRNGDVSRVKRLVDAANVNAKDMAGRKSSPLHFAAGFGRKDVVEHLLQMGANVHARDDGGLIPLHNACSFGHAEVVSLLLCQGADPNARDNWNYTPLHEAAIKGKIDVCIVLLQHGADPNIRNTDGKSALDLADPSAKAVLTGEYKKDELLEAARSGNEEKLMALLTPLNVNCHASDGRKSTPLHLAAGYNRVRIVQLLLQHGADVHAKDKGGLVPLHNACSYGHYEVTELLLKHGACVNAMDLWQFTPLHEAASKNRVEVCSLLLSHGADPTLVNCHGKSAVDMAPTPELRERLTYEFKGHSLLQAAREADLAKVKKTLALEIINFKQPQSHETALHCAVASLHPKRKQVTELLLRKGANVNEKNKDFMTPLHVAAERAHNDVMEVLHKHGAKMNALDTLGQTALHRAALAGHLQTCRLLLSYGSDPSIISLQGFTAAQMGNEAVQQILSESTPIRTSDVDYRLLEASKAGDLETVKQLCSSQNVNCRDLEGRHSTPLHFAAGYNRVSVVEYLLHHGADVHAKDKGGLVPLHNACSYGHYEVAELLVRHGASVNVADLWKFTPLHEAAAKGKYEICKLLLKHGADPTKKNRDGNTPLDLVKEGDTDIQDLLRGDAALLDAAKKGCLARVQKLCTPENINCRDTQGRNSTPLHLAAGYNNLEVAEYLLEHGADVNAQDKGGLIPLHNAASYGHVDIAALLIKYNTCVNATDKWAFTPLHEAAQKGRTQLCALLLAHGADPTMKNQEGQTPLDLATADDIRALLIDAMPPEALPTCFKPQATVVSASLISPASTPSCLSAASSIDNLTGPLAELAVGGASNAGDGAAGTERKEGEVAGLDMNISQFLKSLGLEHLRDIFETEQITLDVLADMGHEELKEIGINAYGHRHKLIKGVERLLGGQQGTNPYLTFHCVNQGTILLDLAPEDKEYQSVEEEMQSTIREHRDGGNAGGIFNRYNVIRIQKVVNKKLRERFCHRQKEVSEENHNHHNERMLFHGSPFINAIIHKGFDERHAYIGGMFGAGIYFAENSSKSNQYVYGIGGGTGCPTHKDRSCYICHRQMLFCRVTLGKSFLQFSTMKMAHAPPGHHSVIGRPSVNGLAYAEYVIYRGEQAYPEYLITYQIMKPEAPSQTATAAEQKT
The assay is described as follows: Inhibition of tankyrase in human SW480 cells assessed as axin2 accumulation after 24 hrs by Hoechst dye-based assay. It is filed as cell-based.

`CC1(C)OC(=O)N(c2ccc(-c3cnc(N)c(-c4ncccn4)c3)cc2)[C@H]1c1ccccc1`: the EC50 is 709 nM.
